# Test results: US20070270488A1, “Treatment and Assays” (The Queen's University of Belfast, priority 2004, published 2007)
# Where two headings read alike, the source gives them in different places.
# Key:
# Assay type in all cases: cell-based, human
# [1] = system: HCT116 p53^+/+ parental cells; test: MTT cytotoxicity assay, HCT116 p53^+/+ parental cells; settings: 72 h
# Experimental: (§1) Tissue culture. HCT116 p53^+/+ and p53^−/− isogenic human colon cancer cells were kindly provided by Professor Bert Vogelstein (John Hopkins University, Baltimore, Md.). Drug-resistant HCT116 sub-lines were developed in the inventors' laboratory by repeated exposure to stepwise increasing concentrations of 5-FU, CPT-11 or oxaliplatin over a period of approximately ten months. Parental and drug-resistant HCT116 cell lines were grown in McCoy's 5A medium supplemented with 10% dialysed foetal calf serum (FCS), 50 μg/ml penicillin-streptomycin, 2 mM L-glutamine and 1 mM sodium pyruvate (all from GIBCO Invitrogen Corporation, Paisley, Scotland) and maintained at 37° C. in a humidified atmosphere containing 5% CO2. 5-FU-resistant p53^+/+ and p53^−/− HCT116 cells were maintained in the presence of 2 μM and 4 μM 5-FU respectively. CPT-11-resistant p53^+/+ and p53^−/− HCT116 cells were maintained in the presence of 1 μM and 3 μM CPT-11 respectively. […] Prior to each experiment, resistant sub-lines were cultured in the absence of drug for 48 hours.
# (§2) Cytotoxicity studies. Cells were seeded at 2000 cells per well in 96-well microtiter plates. After 48 hours, cells were treated with a range of concentrations of 5-FU, CPT-11 or oxaliplatin.
# (§3) After 72 hours, 25 μl of MTT dye (5 mg/ml) was added to each well and the plates were incubated at 37° C. for 3 hours. Dark-blue formazan crystals formed by live cells were dissolved in 200 μl of DMSO and absorbance in individual wells was determined at 570 nm using an Emax precision microplate reader (Molecular Devices, Sunnyvale, Calif.).
# [2] = system: p53^+/+ 5-FU-resistant HCT116 cells; test: MTT cytotoxicity assay, p53^+/+ 5-FU-resistant HCT116 cells; settings: for IC50: p53^+/+ 5-FU-resistant, MTT, 72 h
# [3] = system: p53^+/+ oxaliplatin-resistant HCT116 cells; test: MTT cytotoxicity assay, p53^+/+ oxaliplatin-resistant HCT116 cells; settings: for IC50: p53^+/+ oxaliplatin-resistant, MTT, 72 h; for increase in IC50 (72 hr) compared to parental cells: p53^+/+ oxaliplatin-resistant vs p53^+/+ parental
# Experimental: as §1, §2, §3
# [4] = system: p53^+/+ CPT-11-resistant HCT116 cells; test: MTT cytotoxicity assay, p53^+/+ CPT-11-resistant HCT116 cells; settings: for IC50: p53^+/+ CPT-11-resistant, MTT, 72 h; for increase in IC50 (72 hr) compared to parental cells: p53^+/+ CPT-11-resistant vs p53^+/+ parental
# [5] = system: HCT116 p53^−/− parental cells; test: MTT cytotoxicity assay, HCT116 p53^−/− parental cells; settings: for IC50: MTT, 72 h
# Experimental: as §1, §2, §3
# [6] = system: p53^−/− 5-FU-resistant HCT116 cells; test: MTT cytotoxicity assay, p53^−/− 5-FU-resistant HCT116 cells; settings: p53^−/− 5-FU-resistant, MTT, 72 h
# [7] = system: p53^−/− oxaliplatin-resistant HCT116 cells; test: MTT cytotoxicity assay, p53^−/− oxaliplatin-resistant HCT116 cells; settings: for IC50: p53^−/− oxaliplatin-resistant, MTT, 72 h; for increase in IC50 (72 hr) compared to parental cells: p53^−/− oxaliplatin-resistant vs p53^−/− parental
# Experimental: as §1, §2, §3
# [8] = system: p53^−/− CPT-11-resistant HCT116 cells; test: MTT cytotoxicity assay, p53^−/− CPT-11-resistant HCT116 cells; settings: for IC50: p53^−/− CPT-11-resistant, MTT, 72 h; for increase in IC50 (72 hr) compared to parental cells: p53^−/− CPT-11-resistant vs p53^−/− parental
# [9] = system: p53^+/+ HCT116 parental cells; test: Flow cytometry cell cycle/apoptosis, p53^+/+ HCT116 parental cells; settings: 72 hours
# [10] = system: p53^+/+ 5-FU-resistant HCT116 cells; test: Flow cytometry cell cycle/apoptosis, p53^+/+ 5-FU-resistant cells; settings: p53^+/+ 5-FU-resistant cell line, data not shown
# [11] = system: p53^+/+ CPT-11-resistant HCT116 cells; test: Flow cytometry cell cycle/apoptosis, p53^+/+ CPT-11-resistant cells; settings: 72 hours
# Experimental: as §1
# (§4) Flow cytometry. Cells were seeded at 5×10^4 cells per well in 6-well plates. After 48 hours, cells were treated with a range of concentrations of 5-FU, CPT-11 or oxaliplatin. Seventy-two hours post-treatment, cells were harvested in 5 ml of 1× PBS/0.5 mM EDTA and pelleted by centrifugation at 1000 rpm/4° C. for 5 minutes. Cell pellets were washed once with 1× PBS/1% FCS, fixed in 70% ethanol and stained with propidium iodide. Analyses were performed on a Beckman Coulter Epics XL flow cytometer (Miami, Fla.).
# [12] = system: p53^−/− HCT116 parental cells; test: Flow cytometry cell cycle/apoptosis, p53^−/− HCT116 parental cells; settings: 72 hours; for drug-induced apoptosis in p53^−/− compared to p53^+/+ parental cells: range of concentrations
# [13] = system: p53^−/− CPT-11-resistant HCT116 cells; test: Flow cytometry cell cycle/apoptosis, p53^−/− CPT-11-resistant cells
# p53^+/+ HCT116 cells = test: PARP cleavage immunoblotting, p53^+/+ HCT116 cells; settings: 48 hours, Western blot
# p53^−/− HCT116 cells = test: PARP cleavage immunoblotting, p53^−/− HCT116 cells; settings: 48 hours, Western blot
# [14] = system: p53^+/+ oxaliplatin-resistant HCT116 cells; test: Flow cytometry cell cycle/apoptosis, p53^+/+ oxaliplatin-resistant cells; settings: 72 hours
# Experimental: as §1, §4
# [15] = system: p53^−/− oxaliplatin-resistant HCT116 cells; test: Flow cytometry cell cycle/apoptosis, p53^−/− oxaliplatin-resistant cells; settings: same concentrations as parental (1 μM, 5 μM)
# Experimental: as §1
# Flow cytometry. Cells were seeded at 5×10^4 cells per well in 6-well plates. After 48 hours, cells were treated with a range of concentrations of 5-FU, CPT-11 or oxaliplatin. Seventy-two hours post-treatment, cells were harvested in 5 ml of 1× PBS/0.5 mM EDTA and pelleted by centrifugation at 1000 rpm/4° C. for 5 minutes. […]
# [16] = Homo sapiens, HCT-116, read-out: IC50(72 h)
# [17] = parental HCT116 p53^−/− vs p53^+/+
# [18] = HCT116 p53^+/+ parental, read-out: IC50(72 h)
# [19] = HCT116 p53^−/− parental, read-out: IC50(72 h)
structure (smiles),measurement,setting,value
"CCc1c2c(nc3ccc(OC(=O)N4CCC(N5CCCCC5)CC4)cc13)-c1cc3c(c(=O)n1C2)COC(=O)[C@]3(O)CC [CPT-11, irinotecan]",IC50,"[1]; Homo sapiens, HCT-116, HCT116 p53^+/+ parental, read-out: IC50(72 h)",3.2 µM
same,IC50,[2]; [16],7.2 µM
same,increase in IC50 (72 hr) compared to parental cells,[2]; p53^+/+ 5-FU-resistant vs p53^+/+ parental,~2 fold
same,IC50,[3]; [16],2.9 µM
same,IC50,[4]; [16],30.3 µM
same,increase in IC50 (72 hr) compared to parental cells,[4],10.0 fold
same,IC50,"[5]; Homo sapiens, HCT-116, HCT116 p53^−/− parental, read-out: IC50(72 h)",3.1 µM
same,IC50 (72 h) in parental p53^+/+ and p53^−/− cells compared,[5]; [17],almost identical
same,IC50,[6]; [16],2.8 µM
same,IC50,[7]; [16],3.5 µM
same,IC50,[8]; [16],200 µM
same,increase in IC50 (72 hr) compared to parental cells,[8],65.0 fold
same,cell cycle distribution,[9]; 0.5 μM,accumulation of cells in S-phase
same,cell cycle distribution,[9]; 1 μM,majority of cells were now arrested in G2/M
same,cells in the sub-G0/G1 apoptotic phase,[9]; 5 μM,~40%
same,cross-resistance examined using flow cytometry,[10],not apparent
same,cell cycle distribution,[11]; 0.5 μM and 1 μM,almost completely insensitive
same,cell cycle distribution,[11]; 5 μM,significant G2/M arrest and accumulation of polyploid cells
same,degree of apoptosis,[11]; 5 μM,~14%
same,cell cycle distribution,[12]; 0.5 μM and 1 μM,dramatic G2/M cell cycle arrest
same,apoptotic cells,"[12]; 5 μM, ~2% in control samples",~35%
same,drug-induced apoptosis in p53^−/− compared to p53^+/+ parental cells,[12],almost identical levels of apoptosis
same,cell cycle distribution,[13]; 0.5 μM and 1 μM,no G2/M arrest was observed
same,apoptosis,"[13]; 5 μM, 72 hours",no apoptosis was observed
same,PARP cleavage,p53^+/+ HCT116 cells; 5 μM,evident
same,PARP cleavage,p53^−/− HCT116 cells; 5 μM,evident
CCc1c2c(nc3ccc(O)cc13)-c1cc3c(c(=O)n1C2)COC(=O)[C@]3(O)CC [SN-38],IC50,"[1]; p53^+/+ Parental, read-out: SN-38 IC50(72 h)",0.0056 µM
same,IC50,[2]; read-out: SN-38 IC50(72 h),0.0065 µM
same,IC50,[3]; read-out: SN-38 IC50(72 h),0.0037 µM
same,increase in IC50 (72 hr) compared to parental cells,[4],~10 fold
same,IC50,[4]; read-out: SN-38 IC50(72 h),0.04 µM
same,IC50,"[5]; p53^−/− Parental, read-out: SN-38 IC50(72 h)",0.0042 µM
same,IC50 (72 h) in parental p53^+/+ and p53^−/− cells compared,[5]; [17],similar
same,IC50,[6]; read-out: SN-38 IC50(72 h),0.0036 µM
same,IC50,[7]; read-out: SN-38 IC50(72 h),0.0033 µM
same,increase in IC50 (72 hr) compared to parental cells,[8],~100 fold
same,IC50,[8]; read-out: SN-38 IC50(72 h),0.54 µM
N.N.O=C([O-])C1(C(=O)[O-])CCC1.[Pt+2] [carboplatin],IC50,[1]; [18],76 µM
same,increase in IC50 (72 hr) compared to parental cells,[3],~2 fold
same,IC50,[3]; read-out: IC50(72 h),176 µM
same,IC50,[5]; [19],78.7 µM
same,increase in IC50 (72 hr) compared to parental cells,[7],~2 fold
same,IC50,[7]; read-out: IC50(72 h),141 µM
N.N.[Cl][Pt][Cl] [cisplatin],IC50,[1]; [18],5.4 µM
same,IC50,[3]; read-out: IC50(72 h),7.3 µM
same,IC50,[5]; [19],5.7 µM
same,IC50,[7]; read-out: IC50(72 h),6.7 µM
O=C1[O][Pt]2([NH][C@@H]3CCCC[C@H]3[NH]2)[O]C1=O [oxaliplatin],IC50,[1]; [18],0.3 µM
same,IC50,[2]; read-out: IC50(72 h),0.3 µM
same,increase in IC50 (72 hr) compared to parental cells,[3],31.0 fold
same,IC50,[3]; read-out: IC50(72 h),9.4 µM
same,IC50,[4]; read-out: IC50(72 h),0.3 µM
same,IC50,[5]; [19],1.7 µM
same,increase in IC50 (72 h) dose in p53^−/− compared to p53^+/+ cells,[5]; [17],5.7 fold
same,IC50,[6]; read-out: IC50(72 h),1.9 µM
same,increase in IC50 (72 hr) compared to parental cells,[7],10.5 fold
same,IC50,[7]; read-out: IC50(72 h),17.9 µM
same,IC50,[8]; read-out: IC50(72 h),1.7 µM
same,cell cycle distribution,[9]; 0.5 μM,majority of cells had arrested in G2/M-phase
same,proportion of apoptotic cells,"[9]; 1 μM and 5 μM, ~2% in control samples",40-50%
same,cell cycle distribution,[14]; 0.5 μM and 1 μM,unaffected
same,cell cycle distribution,[14]; 5 μM,majority of cells were arrested in S-phase
same,induction of apoptosis compared to parental cells,[14],dramatically attenuated
same,cell cycle distribution,[12]; 1 μM,S-phase block and a moderate increase in the polyploid fraction
same,cell cycle distribution,[12]; 5 μM,majority of cells were arrested in G2/M phase
same,drug-induced apoptosis in p53^−/− compared to p53^+/+ parental cells,[12],significantly attenuated
same,cell cycle distribution,[15],no change in cell cycle distribution
same,PARP cleavage,p53^+/+ HCT116 cells; 1 μM,observed
same,PARP cleavage,p53^−/− HCT116 cells; 1 μM,not
